{
  "source": "patent US10738013B2",
  "about": "“Eluxadoline crystalline forms and processes for their preparation” (priority 2017, dated 2020)",
  "key": {"Dissolution test": {"experiment": "Dissolution test", "type": "physicochemical", "details": "50 mM phosphate buffer pH=7.4, 37° C., 110 rpm", "protocol": "Dissolution tests were performed by means of Sotax AT7 Smart equipped with 6×800 mL volume vessels and using a 50 mM phosphate buffer pH=7.4, previously heated to 37° C. 20 mg of the sample to be tested were placed in each vessel, and stirred (with paddles) at 110 rpm for 60 minutes at 37±0.2° C. Aliquots were taken at 5, 10, 20, 30, 45 and 60 min, filtered through 0.45 μm Chromafil Xtra RC 45/25 syringe filter and analysed by UV/VIS spectrometer Perkin Elmer Lambda 35, 1 cm quartz cell (absorbance at 203 nm). pH was determined using a Mettler Toledo pH Meter FE20 equipped with a InLab®420 electrode.\nA portion of the product was subjected to a dissolution test in 50 mM phosphate buffer at pH=7.4 giving the results summarised below: […]"}, "[1]": {"experiment": "Thermal (polymorphic) stability at 120° C. by XRPD", "type": "physicochemical", "details": "maintained at 120° C. for 24 or 48 hours, cooled to room temperature", "protocol": "By “polymorphically stable” it is meant that the crystalline Form α′ of the present invention when stored under stressed conditions i.e., up to a temperature of 120° C. for 24 or 48 hours, show no signs of crystallinity associated to other polymorphs of eluxadoline (e.g. Form β) as judged by the absence of their relevant peaks in an X-ray powder diffractogram (XRPD).\nAnalyses were performed on a Bruker AXS D8 Advance diffractometer (40 kV, 40 mA, λ=1.5418 Å), equipped with a linear Lynxeye position sensitive detector, set at 300 mm from the sample (Ni-filtered Cu-Kα1,2 radiation). Data collection was made in coupled mode and in theta-theta configuration, in the 3-30° 2-theta, sampling with a 0.02° step scan. Samples were gently ground in an agate mortar, and then deposited in the 0.2 mm-deep hollow of a silicon monocrystal zero background plate.\nThe polymorphically and chemically stable form α′ of eluxadoline, prepared as described in Examples 10 to 12, were maintained at 120° C. for 24 or 48 hours."}},
  "data": [
    {"smiles": "COc1ccc(CN(C(=O)[C@@H](N)Cc2c(C)cc(C(N)=O)cc2C)[C@@H](C)c2nc(-c3ccccc3)c[nH]2)cc1C(=O)O", "note": "[form α′, 5-({[(2S)-2-amino-3-(4-carbamoyl-2,6-dimethylphenyl)propanoyl][(1S)-1-(4-phenyl-1H-imidazol-2-yl)ethyl]amino}methyl)-2-methoxybenzoic acid]", "values": [
      {"measurement": "% dissolved", "setting": "Dissolution test; 5 min", "result": 6.06, "unit": "%"},
      {"measurement": "% dissolved", "setting": "Dissolution test; 10 min", "result": 13.93, "unit": "%"},
      {"measurement": "% dissolved", "setting": "Dissolution test; 20 min", "result": 17.81, "unit": "%"},
      {"measurement": "% dissolved", "setting": "Dissolution test; 30 min", "result": 27.87, "unit": "%"},
      {"measurement": "% dissolved", "setting": "Dissolution test; 45 min", "result": 38.40, "unit": "%"},
      {"measurement": "% dissolved", "setting": "Dissolution test; 60 min", "result": 60.17, "unit": "%"},
      {"measurement": "XRPD after thermal stress (polymorphic stability)", "setting": "[1]", "result": "XRPD spectrum corresponding to the one obtained in example 10"}
    ]}
  ]
}
